The source of these data is patent publication US11300509B2, “Cleavable linkers for protein translation reporting” (9412-1126 Québec inc., priority 2020, dated 2022).

No end group written: not given here.

Assay [1] has as its target T1, Cherry1-10 (Discosoma sp., UniProt Q9U6Y8, A164R/C117E/F124L/F177V/H162N/H41T/I125L/I180T/K163Q/K83L/K92T/L150M/L174D/M182K/N42Q/Q66M/R153E/R17H/R36H/S179T/S197I/T21S/V127T/V156A/V175A/V44A/V71A/Y192A/Y194N).
T1 construct: made in house; host or cells: Escherichia coli BL21(DE3)
Put plainly: In vitro reconstitution of split Cherry: Cherry11 peptide mixed with Cherry1-10. Type of assay: binding. The procedure: Fluorescence output was recorded every 0.1 seconds for a duration of 30 seconds.
In vitro fluorescence complementation was performed by mixing purified XFP1-10 protein and chemically synthesized XFP11 peptides and the fluorescence intensity of the reaction was collected with a StepOnePlus real-time thermal cycler (Thermo-Fisher). […] XFP1-10 in TNG buffer or PBS (varied pH) was added to wells of a 96-well microplate coated with 1 mM bovine serum albumin and allowed to equilibrate for 60 seconds. XFP11 peptide was added according to different final peptide concentrations and the microplate was immediately loaded into the fluorescence reader. The fluorescence intensity was measured every 10 seconds for 45 minutes at 32° C. or 37° C. with 495 nm excitation and 520 nm emission. The fluorescence intensity was normalized to the initial fluorescence intensity to express relative fluorescence increase upon fluorescence reconstitution. […] Standard curves for XFP fluorescence measurements were generated by either using reconstituted XFP or XFP purified from E. coli using GFP specific chromatography columns (Bio-Rad). XFP protein concentration was determined using the Bradford assay and absorbance readings at 280 nm with a NanoDrop 2000 (Thermo-Fisher). Samples were serially diluted (1:10 or 1:5) and 10 μL samples were imaged to reduce any non-linear fluorescence excitation effects. […]

Assay [2] deals with T2, GFP1-10 (Aequorea victoria, UniProt P42212, A206V/E111V/F64L/F99S/I128T/I167V/I171V/K166T/M153T/N105K/Q80R/S205T/S30R/S65T/V163A/Y145F/Y39I).
T2 construct: Residues 1-213 of GFP, corresponding to the first 10 beta strands of GFP (GFP1-10); made in house; host or cells: Escherichia coli BL21(DE3)
Description: In vitro reconstitution (fluorescence complementation) of split GFP: GFP11 peptide mixed with purified GFP1-10. Type of assay: binding. Also on record: half time of reconstitution: dose or concentration left out as unconfirmed. Particulars: for observed rate constant (kobs) of GFP11 peptide binding: pseudo-first order. The procedure: FIGS. 1F-G, relating to the stoichiometric production of GFP11 reporter as a function of time using a PTR linker to allow instantaneous detection of protein translation, are graphs that illustrate that reconstitution of split GFP as a function of seconds passed. […] Within the first second of reconstitution, i.e., in milliseconds, fluorescence emission begins (FIG. 1F), and the fluorescence intensity of the reaction rose logarithmically and began to saturate after 5 minutes (FIG. 1G). […] To obtain kinetic measurements of the reconstitution reaction at sub-second timescales, an ultrasensitive fluorescence spectrophotometer was used. A stopped-flow dispenser was used to mix and deliver known volumes of GFP1-10 and GFP11 proteins. This allowed the establishment of a to for the moment split GFP components first interact. […] Fluorescence increase over time from the bimolecular reaction was modeled as pseudo-first order and fit to a one phase association curve to determine the observed rate constant (kobs) of GFP11 peptide binding for each concentration of GFP11 tested. For 50 nM GFP11 and excess GFP1-10, the kobs is 0.003 s-1.
In the volume of a medium-size cell, the slower, lowest concentration reactions would generate tens of reconstituted molecules per second, and for the average protein synthesis hundreds per second. […].
In vitro fluorescence complementation was performed by mixing purified XFP1-10 protein and chemically synthesized XFP11 peptides and the fluorescence intensity of the reaction was collected with a StepOnePlus real-time thermal cycler (Thermo-Fisher). […] XFP11 peptide was added according to different final peptide concentrations and the microplate was immediately loaded into the fluorescence reader. The fluorescence intensity was measured every 10 seconds for 45 minutes at 32° C. or 37° C. with 495 nm excitation and 520 nm emission. The fluorescence intensity was normalized to the initial fluorescence intensity to express relative fluorescence increase upon fluorescence reconstitution. […] Standard curves for XFP fluorescence measurements were generated by either using reconstituted XFP or XFP purified from E. coli using GFP specific chromatography columns (Bio-Rad). XFP protein concentration was determined using the Bradford assay and absorbance readings at 280 nm with a NanoDrop 2000 (Thermo-Fisher). Samples were serially diluted (1:10 or 1:5) and 10 μL samples were imaged to reduce any non-linear fluorescence excitation effects. […] Total fluorescence intensity (in photon counts) was collected every 0.1 s or 0.01 s for varying durations.
Pearson's linear correlations were calculated by fitting the data to a simple linear regression model, with the coefficient of determination, R2. […]

Take “Cherry11: small fragment of split mCherry red fluorescent protein; purified peptide that reconstitutes with Cherry1-10 (MGGGGSGGGGSYTIVEQYERAEGRHSTGG)”: the “onset of reconstitution upon addition of peptide” value in assay [1] (Cherry1-10 and Cherry11 in vitro, FIG. 3E) is on record as “immediately”. In addition, in assay [1] (compared with split GFP and split Dendra2), the “fluorescence signal strength of reconstitution” value was “overall weaker signal compared to split GFP and split Dendra2”.
Take RDHMVLHEYVNAAGIT [GFP11]: the “observed rate constant (kobs) of GFP11 peptide binding” value in assay [2] (50 nM GFP11 and excess GFP1-10, one phase association fit) was found to be 0.003 s⁻¹; in assay [2] (one phase association fit, FIG. 1G, R2=0.99) it was 0.007 ± 0.0001 s⁻¹. The “half time of reconstitution” value in assay [2] (one phase association fit, FIG. 1G) was found to be 95 s. In assay [2] (stopped-flow mixing of GFP1-10 and GFP11), the “time to detection of green fluorescence upon mixing” value is listed as at most 100 ms.
